target: T1, human Edg-1 receptor (Homo sapiens, UniProt P21453); experiment: GTP-γ-S assay using human Edg-1 receptors (scintillation proximity assay, CHO Flp-In cell membrane preparation); format: biochemical; details: test compound at 10 μM; 10 μM S1P regarded as 100% activation; background-corrected; triplicate; read-out: % Activation (Edg-1 receptor activation in percent of the activation by 10 μM S1P)
T1 construct: expressed in transfected cells; host or cells: Flp-In-CHO cells, stably transfected; membrane preparation
T1 sequence (P21453 whole entry): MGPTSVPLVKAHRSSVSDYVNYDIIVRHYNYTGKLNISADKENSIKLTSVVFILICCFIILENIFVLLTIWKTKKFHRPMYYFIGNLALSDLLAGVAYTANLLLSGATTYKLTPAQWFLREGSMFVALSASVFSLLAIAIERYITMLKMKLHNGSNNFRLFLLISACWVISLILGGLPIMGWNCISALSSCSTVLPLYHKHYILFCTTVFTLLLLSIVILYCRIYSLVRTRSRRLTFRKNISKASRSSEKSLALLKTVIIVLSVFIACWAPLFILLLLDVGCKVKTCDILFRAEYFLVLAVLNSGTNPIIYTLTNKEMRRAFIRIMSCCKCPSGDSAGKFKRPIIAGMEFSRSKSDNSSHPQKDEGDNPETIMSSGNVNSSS
Text: A) GTP-γ-S assay using human Edg-1 receptors
In order to determine the Edg-1 receptor activation by the compounds of the invention, a GTP-γ-S (guanosine 5′-[thio]triphosphate) assay for G-protein coupled receptor binding based on the scintillation proximity assay principle was used, employing a cell membrane preparation from a CHO Flp-In cell line which constitutively overexpresses the human Edg-1 receptor.
(a) Cell line generation The Flp-In™ expression system (Invitrogen, cat. no. K6010-01) allows the generation of stable mammalian cell lines into which the gene of interest has been integrated through homologous recombination at a specific genomic location called Flp Recombination Target (FRT) site by means of a Flp recombinase encoded by the pOG44 expression plasmid. The integration of the pcDNA5/FRT expression construct into the Flp-In host cell line genome results in the transcription of the gene of interest. The stably transfected cells become hygromycin-resistant.
One day prior to transfection, 200 000 Flp-In-CHO cells were seeded in Ham F-12 medium (Invitrogen, cat. no. 31765) supplemented with 10% fetal calf serum (FCS; Perbio Science, cat. no. SH30068.03) in a 6-well plate and incubated at 37° C./5% CO2 overnight. Using the FuGENE® 6 transfection reagent (Roche, cat. no. 11988387001), cells were cotransfected with the Flp recombinase expression plasmid pOG44 and a modified plasmid additionally containing the edg-1 gene (accession no. NM_001400) termed as pcDNA5-FRT-TO_nFLAG_DEST-EDG-1 with a 9:1 ratio. To obtain the modified pcDNA5-FRT-TO_nFLAG_DEST plasmid, the Invitrogen plasmid pcDNA5/FRT/TO (Invitrogen, cat. no. V6520-20) was adapted to the Gateway® (Invitrogen) cloning system by inserting a Gateway cassette containing attR recombination sites flanking a ccdB gene and a chloramphenicol-resistance gene (Gateway conversion system, Invitrogen, cat. no. 11828-029). In addition a FLAG tag epitope was added before the 5′ att recombination site to allow recombinant expression of N-terminally FLAG-tagged proteins.
For the transfection of one well, 1.08 μg of pOG44 and 0.12 μg of pcDNA5-FRT-TO_nFLAG_DEST-EDG-1 were mixed to 100 μl of serum-free Ham F-12 medium containing 6 μl of FuGENE® 6 transfection reagent. After 20 min of incubation, the transfection reagent/DNA complex was distributed dropwise on the cells. The cells were incubated for 24 h at 37° C. Then the cells from 3 wells were transferred to a T75 flask (Greiner Cellstar®, cat. no. 658175) containing Ham F-12 medium supplemented with 10% of FCS but without antibiotic and were incubated another 24 h. 48 h after transfection, the medium was replaced by selection medium (Ham F-12 supplemented with 10% of FCS and 300 μg/ml of hygromycin B (Invitrogen, cat. no. 10687-010)). The medium was exchanged every 2 to 3 days until a resistant population of cells had grown. […] After 2 weeks of selection, the cells were transferred into T175 flasks (Greiner Cellstar®, cat. no. 660175) and cultivated for batch production. Cells were harvested from the culture flasks by short treatment (2 to 5 min) with Accutase (PAA, cat. no. L11-007), resuspended in selection medium (see above) and centrifuged at 200×g for 5 min. Cells were resuspended in a mixture of 90% of FCS and 10% of dimethylsulfoxide and stored frozen in liquid nitrogen.
A membrane preparation was obtained by standard methods from the afore-described CHO Flp-ln cell line constitutively overexpressing the human Edg-1 receptor. Briefly, the cryopreserved cells were taken in culture and grown until confluency in T175 cell culture flasks (Becton Dickinson, cat. no. 35 5001). […]

Row | SMILES | activation at 10 µM [%]
1 | Cc1cc(-c2nc3cnc(Oc4ccccc4F)nc3o2)cc(C)c1O [Example 2, 4-[5-(2-Fluoro-phenoxy)-oxazolo[5,4-d]pyrimidin-2-yl]-2,6-dimethyl-phenol] | 115
2 | COc1c(C)cc(-c2nc3cnc(Oc4ccccc4F)nc3o2)cc1C [Example 1, 5-(2-Fluoro-phenoxy)-2-(4-methoxy-3,5-dimethyl-phenyl)-oxazolo[5,4-d]pyrimidine] | 102
3 | COc1c(C)cc(-c2nc3cnc(Oc4cccnc4)nc3o2)cc1C [Example 9, 2-(4-methoxy-3,5-dimethyl-phenyl)-5-(pyridin-3-yloxy)-oxazolo[5,4-d]pyrimidine] | 87
4 | COc1cccc(-c2nc3cnc(Oc4ccccc4F)nc3o2)c1 [Example 3, 5-(2-fluoro-phenoxy)-2-(3-methoxy-phenyl)-oxazolo[5,4-d]pyrimidine] | 95
5 | COc1ccc(-c2nc3cnc(Oc4ccccc4F)nc3o2)cc1C [Example 5, 5-(2-fluoro-phenoxy)-2-(4-methoxy-3-methyl-phenyl)-oxazolo[5,4-d]pyrimidine] | 42
6 | Oc1ccc(-c2nc3cnc(Oc4ccccc4F)nc3o2)cc1C(F)(F)F [Example 10, 4-[5-(2-fluoro-phenoxy)-oxazolo[5,4-d]pyrimidin-2-yl]-2-trifluoromethyl-phenol] | 107
7 | Cc1cc(-c2nc3cnc(Oc4ccccc4F)nc3o2)ccc1S(C)(=O)=O [Example 13, 5-(2-fluorophenoxy)-2-(4-methanesulfonyl-3-methylphenyl)-oxazolo[5,4-d]pyrimidine] | 120
8 | Cc1cc(-c2nc3cnc(Oc4cccc(F)c4)nc3o2)cc(C(C)C)c1O [Example 12, 4-[5-(3-fluorophenoxy)-oxazolo[5,4-d]pyrimidin-2-yl]-2-isopropyl-6-methyl-phenol] | 112
9 | COc1c(C)cc(-c2nc3cnc(Oc4ccccc4)nc3o2)cc1C [Example 8, 2-(4-methoxy-3,5-dimethyl-phenyl)-5-phenoxy-oxazolo[5,4-d]pyrimidine] | 94
10 | Cc1cc(-c2nc3cnc(Oc4ccccc4F)nc3o2)ccc1O [Example 7, 4-[5-(2-fluoro-phenoxy)-oxazolo[5,4-d]pyrimidin-2-yl]-2-methyl-phenol] | 115

Results, then the compound that gave them:

Row | activation at 10 µM [%] | SMILES
11 | 83 | Oc1ccc(-c2nc3cnc(Oc4ccccc4F)nc3o2)cc1 [Example 4, 4-[5-(2-fluoro-phenoxy)-oxazolo[5,4-d]pyrimidin-2-yl]-phenol]
12 | 69 | Cc1cc(S(C)(=O)=O)ccc1-c1nc2cnc(Oc3ccccc3F)nc2o1 [Example 14, 5-(2-fluorophenoxy)-2-(4-methanesulfonyl-2-methylphenyl)-oxazolo[5,4-d]pyrimidine]
13 | 87 | COc1ccc(-c2nc3cnc(Oc4ccccc4F)nc3o2)cc1C(F)(F)F [Example 6, 5-(2-fluoro-phenoxy)-2-(4-methoxy-3-trifluoromethyl-phenyl)-oxazolo[5,4-d]pyrimidine]
14 | 103 | Cc1cc(-c2nc3cnc(Oc4cccnc4)nc3o2)cc(C)c1O [Example 11, 2,6-dimethyl-4-[5-(pyridin-3-yloxy)-oxazolo[5,4-d]pyrimidin-2-yl]-phenol]
